Experimental data as given in patent US6946480B2, “Glutaminyl based DPIV inhibitors” (priority 2002, dated 2005).

Tests used:
Assay type in all cases: biochemical
[1] = target: T1, Dipeptidyl Peptidase I (DP I, Cathepsin C) (Rattus norvegicus, UniProt P80067); assay: Cross reacting enzymes - dipeptidyl peptidase I; settings: concentration range 1*10^−5 M-1*10^−7 M
T1 construct: purchased Qiagen GmbH, Hilden, Germany
Method: (§1) Glutaminyl pyrrolidine or glutaminyl thiazolidine were tested for their cross reacting potency against dipeptidyl peptidase I, prolyl oligopeptidase and prolidase.
DP I or cathepsin C is a lysosomal cysteine protease which cleaves off dipeptides from the N-terminus of their substrates (Gutman, H. R. & Fruton, J. S., 1948, J. Biol: Chem., 174, 851-858) . It is classified as a cysteine protease.
The enzyme used was purchased from Qiagen (Qiagen GmbH, Hilden, Germany). In order to get a fully active enzyme, the enzyme was diluted 1000fold in MES buffer pH5,6 (40 mM MES, 4 mM DTT, 4 mM KCl, 2 mM EDTA, 0.015% Brij) and pre-incubated for 30 min at 30° C.
50 μl glutaminyl pyrrolidine or glutaminyl thiazolidine in a concentration range of 1*10^−5 M-1*10^−7 M were admixed with 110 μl buffer-enzyme-mixture. The assay mixture was pre-incubated at 30° C. for 15 min After pre-incubation, 100 μl histidylseryl-β-nitroaniline (2*10^−5 M) were added and measurement of yellow color development due to β-nitroaniline release was performed at 30° C. and […] for 10 min, using a plate reader (HTS7000 plus, Applied Biosystems, Weiterstadt, Germany).
(§2) The IC50-values were calculated using Graphit 4.0.15 (Erithacus Software, Ltd., UK).

[2] = target: T2, recombinant human prolyl oligopeptidase (POP) (Homo sapiens, UniProt P48147); assay: Cross reacting enzymes - prolyl oligopeptidase; settings: concentration range 1*10^−4 M-5*10^−8 M
T2 construct: made in house; host or cells: E. coli
T2 sequence (P48147 1-710): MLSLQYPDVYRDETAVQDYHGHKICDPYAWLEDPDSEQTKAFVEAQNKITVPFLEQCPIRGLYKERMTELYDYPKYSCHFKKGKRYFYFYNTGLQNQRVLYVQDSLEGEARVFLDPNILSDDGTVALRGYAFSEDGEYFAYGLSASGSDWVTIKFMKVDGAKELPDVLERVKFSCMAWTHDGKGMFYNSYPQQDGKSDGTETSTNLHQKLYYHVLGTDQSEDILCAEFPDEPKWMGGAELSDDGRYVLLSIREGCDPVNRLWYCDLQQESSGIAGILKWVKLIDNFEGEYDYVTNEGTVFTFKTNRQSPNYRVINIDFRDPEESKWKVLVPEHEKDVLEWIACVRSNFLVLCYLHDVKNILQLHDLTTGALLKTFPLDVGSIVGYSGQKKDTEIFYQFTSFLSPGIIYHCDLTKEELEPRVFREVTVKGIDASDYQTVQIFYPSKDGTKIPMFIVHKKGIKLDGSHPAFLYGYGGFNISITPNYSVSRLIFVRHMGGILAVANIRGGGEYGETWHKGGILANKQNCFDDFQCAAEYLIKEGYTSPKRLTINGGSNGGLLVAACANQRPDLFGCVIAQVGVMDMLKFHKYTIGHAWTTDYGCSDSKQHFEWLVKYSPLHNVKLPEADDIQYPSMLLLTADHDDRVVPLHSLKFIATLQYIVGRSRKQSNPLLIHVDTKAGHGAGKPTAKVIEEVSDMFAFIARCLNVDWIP
Method: as §1
Substrates are peptides with a molecular weight up to 3000 Da.
The enzyme used was a recombinant human prolyl oligopeptidase. Recombinant expression was performed in E. coli under standard conditions as described elsewhere in the state of the art.
100 μl glutaminyl pyrrolidine or glutaminyl thiazolidine in an concentration range of 1*10^−4 M-5*10^−8 M were admixed with 100 μl μl buffer solution (40 mM HEPES, pH7.6, 0.015% Brij, 1 mM DTT) and 20 μl POP solution. The assay mixture was pre-incubated at 30° C. for 15 min After pre-incubation, 50 μl glycylprolylprolyl-4-nitroaniline solution (0.29 mM) were added and measurement of yellow color development due to 4-nitroaniline release was performed at 30° C. and λ=405 nm for 10 min using a plate reader (sunrise, Tecan, Crailsheim, Germany).
as §2

[3] = target: T3, Prolidase from porcine kidney (Sus scrofa, UniProt A0A5G2QQV1); assay: Cross reacting enzymes - prolidase
T3 sequence (A0A5G2QQV1 1-463): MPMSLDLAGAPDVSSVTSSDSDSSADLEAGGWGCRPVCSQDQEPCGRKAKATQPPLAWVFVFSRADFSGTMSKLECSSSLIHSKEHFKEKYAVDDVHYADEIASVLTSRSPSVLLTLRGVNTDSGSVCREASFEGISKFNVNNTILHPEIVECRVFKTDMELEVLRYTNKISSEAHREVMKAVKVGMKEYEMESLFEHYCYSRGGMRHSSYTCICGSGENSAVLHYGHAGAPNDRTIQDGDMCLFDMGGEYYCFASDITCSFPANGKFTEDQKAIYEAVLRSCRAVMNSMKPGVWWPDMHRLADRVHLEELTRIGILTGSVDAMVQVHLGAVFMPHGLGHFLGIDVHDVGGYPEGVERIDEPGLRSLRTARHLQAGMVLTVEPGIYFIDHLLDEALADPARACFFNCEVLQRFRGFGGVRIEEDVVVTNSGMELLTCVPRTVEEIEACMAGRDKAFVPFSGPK
Method: as §1
Prolidase (EC 3.4.13.9) was first described by Bergmann & Fruton (Bergmann, M. & Fruton, J S, 1937, J. Biol. Chem. 189-202). Prolidase releases the N-terminal amino acid from Xaa-Pro dipeptides and has a pH optimum between 6 and 9.
Prolidase from porcine kidney (ICN Biomedicals, Eschwege, Germany). was solved (1 mg/ml) in assay buffer (20 mM NH4(CH3COO)2, 3 mM MnCl2, pH 7.6). In order to get a fully active enzyme the solution was incubated for 60 min at room temperature.
450 μl glutaminyl pyrrolidine or glutaminyl thiazolidine in an concentration range of 5*10^−3 M-5*10^−7 M were admixed with 500 μl buffer solution (20 mM NH4(CH3COO)2, pH 7.6) and 250 μl lle-Pro-OH (0.5 mM in the assay mixture). The assay mixture was pre-incubated at 30° C. for 5 min After pre-incubation, 75 μl Prolidase (1:10 diluted in assay buffer) were added and measurement was performed at 30° C. and λ=220 nm for 20 min using a UV/Vis photometer, UV1 (Thermo Spectronic, Cambridge, UK).
as §2

T1 sequence (P80067 25-134 limits assumed): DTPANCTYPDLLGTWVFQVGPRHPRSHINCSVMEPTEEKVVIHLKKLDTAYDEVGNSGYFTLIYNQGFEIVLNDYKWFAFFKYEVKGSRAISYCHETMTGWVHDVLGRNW
T1 sequence (P80067 230-393 limits assumed): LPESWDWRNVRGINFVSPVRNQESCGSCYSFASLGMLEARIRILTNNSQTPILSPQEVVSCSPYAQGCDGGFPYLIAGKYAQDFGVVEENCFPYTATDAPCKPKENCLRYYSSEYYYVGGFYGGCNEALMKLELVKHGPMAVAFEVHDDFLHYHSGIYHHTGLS
T1 sequence (P80067 394-462 limits assumed): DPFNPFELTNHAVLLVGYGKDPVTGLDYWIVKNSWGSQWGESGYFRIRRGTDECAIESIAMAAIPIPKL

- inhibition of DP I enzyme activity [1]: no inhibition
- inhibition of POP activity [2]: no inhibition
- efficacy against prolidase compared to DPIV [3]: marked lower efficacy
Compound: NC(=O)CC[C@H](N)C(=O)N1CCCC1 [glutaminyl pyrrolidine]
